Source: patent US20070128217A1 (priority 2003, published 2007)

Experiments:
[1] = system: antibodies in sera from SARS patients (sera 1a, 1b, 2, 6, 37, 62, London, SARS-yellow, SARS-green); assay type: binding, human; parameters: Binding of serum 6 to linear peptides of protein X1 of SARS-CoV Urbani / Binding of serum 37 to linear peptides of protein X1 of SARS-CoV Urbani / Binding of serum 6 to looped/cyclic peptide (PEPSCAN-ELISA) / Binding of serum 37 to looped/cyclic peptide (PEPSCAN-ELISA) / Binding of serum 37 to looped/cyclic peptides of protein X1 of SARS-CoV Urbani / Binding of serum 6 to linear peptides of protein X2 / Binding of serum 37 to linear peptides of protein X2 / Binding of serum 37 to looped/cyclic peptides of protein X2 of SARS-CoV Urbani / Binding of serum 6 to linear peptides of protein M of SARS-CoV Urbani / Binding of serum 37 to linear peptides of protein M of SARS-CoV Urbani / Binding of serum 6 to looped/cyclic peptides of protein M of SARS-CoV Urbani / Binding of serum 37 to looped/cyclic peptides of protein M of SARS-CoV Urbani / Binding of serum 6 to linear peptides of protein X3 of SARS-CoV Urbani / Binding of serum 37 to linear peptides of protein X3 of SARS-CoV Urbani / Binding of serum 37 to looped/cyclic peptides of protein X3 of SARS-CoV Urbani / Binding of serum 6 to linear peptides of protein X4 of SARS-CoV Urbani / Binding of serum 37 to linear peptides of protein X4 of SARS-CoV Urbani / Binding of serum 37 to looped/cyclic peptides of protein X4 of SARS-CoV Urbani / Binding of serum 6 to linear peptides of protein X5 of SARS-CoV Urbani / Binding of serum 37 to linear peptides of protein X5 of SARS-CoV Urbani / Binding of serum 37 to looped/cyclic peptides of protein X5 of SARS-CoV Urbani / Binding of serum 6 to linear peptides of protein N of SARS-CoV Urbani / Binding of serum 37 to linear peptides of protein N of SARS-CoV Urbani / Binding of serum 6 to linear peptide (PEPSCAN-ELISA) / Binding of serum 1a to looped/cyclic peptides of protein N of SARS-CoV Urbani / Binding of serum 1b to looped/cyclic peptides of protein N of SARS-CoV Urbani / Binding of serum 2 to looped/cyclic peptides of protein N of SARS-CoV Urbani / Binding of serum 6 to looped/cyclic peptides of protein N of SARS-CoV Urbani / Binding of serum 37 to looped/cyclic peptides of protein N of SARS-CoV Urbani / Binding of serum 62 to looped/cyclic peptides of protein N of SARS-CoV Urbani / Binding of serum London to looped/cyclic peptides of protein N of SARS-CoV Urbani / Binding of serum SARS-green to looped/cyclic peptides of protein N of SARS-CoV Urbani: unit not given here
[2] = system: control sera (pooled serum of ten healthy LUMC hospital workers; commercial negative donor pooled serum from the Dutch bloodbank); assay type: binding, human; parameters: Binding of Control serum LUMC to linear peptides / Binding of Control serum Blood-bank to linear peptides / Binding of Control serum LUMC to looped peptides / Binding of Control Serum Blood-Bank to Looped peptides / Binding of Control serum LUMC to linear peptides of the protein M of SARS-CoV Urbani / Binding of Control serum Blood-bank to linear peptides of the protein M of SARS-CoV Urbani / Binding of Control serum LUMC to looped peptides of the protein M of SARS-CoV Urbani / Binding of Control Serum Blood-Bank to Looped peptides of the protein M of SARS-CoV Urbani: unit not given here
[3] = system: rabbit serum obtained by immunizing a rabbit with the SARS-CoV strain Frankfurt 1; assay type: binding; parameters: Binding of a rabbit serum to linear peptides / Binding of a rabbit serum to looped peptides / Rabbit serum linear peptides / Rabbit serum looped peptides / Binding of a rabbit serum to linear peptides of protein N of SARS-CoV Urbani (Rabbit serum linear peptides) / Binding of a rabbit serum to looped/cyclic peptides of protein N of SARS-CoV Urbani (Rabbit serum looped peptides): unit not given here

YALIYFLQCINACRI
Binding of serum 1a to linear peptides of protein X1 of SARS-CoV Urbani [1]: 0.7
Binding of serum 1a to looped/cyclic peptide (PEPSCAN-ELISA) [1]: 0.2
Binding of serum 1b to linear peptides of protein X1 of SARS-CoV Urbani [1]: 0.5
Binding of serum 1b to looped/cyclic peptide (PEPSCAN-ELISA) [1]: 0.1
Binding of serum 2 to linear peptides of protein X1 of SARS-CoV Urbani [1]: 0.5
Binding of serum 2 to looped/cyclic peptide (PEPSCAN-ELISA) [1]: 0.1
Binding of serum 6 to linear peptides of protein X1 of SARS-CoV Urbani [1]: 0.4
Binding of serum 6 to looped/cyclic peptide (PEPSCAN-ELISA) [1]: 0.0
Binding of serum 37 to linear peptides of protein X1 of SARS-CoV Urbani [1]: 0.6
Binding of serum 37 to looped/cyclic peptide (PEPSCAN-ELISA) [1]: 0.1
Binding of serum 62 to linear peptides of protein X1 of SARS-CoV Urbani [1]: 0.6
Binding of serum 62 to looped/cyclic peptide (PEPSCAN-ELISA) [1]: 0.2
Binding of serum London to linear peptides of protein X1 of SARS-CoV Urbani [1]: 0.3
Binding of serum London to looped/cyclic peptide (PEPSCAN-ELISA) [1]: 0.1
Binding of serum SARS-green to linear peptides of protein X1 of SARS-CoV Urbani [1]: 0.2
Binding of serum SARS-green to looped/cyclic peptide (PEPSCAN-ELISA) [1]: 0.2
Binding of serum SARS-yellow to linear peptides of protein X1 of SARS-CoV Urbani [1]: 0.4
Binding of serum SARS-yellow to looped/cyclic peptide (PEPSCAN-ELISA) [1]: 0.0
Binding of Control Serum Blood-Bank to Looped peptides [2]: 0.3
Binding of Control serum Blood-bank to linear peptides [2]: 0.6
Binding of Control serum LUMC to linear peptides [2]: 0.6
Binding of Control serum LUMC to looped peptides [2]: 0.2
Binding of a rabbit serum to linear peptides [3]: 0.1
Binding of a rabbit serum to looped peptides [3]: 0.0

LLKTHRMCKYTQSTA
Binding of serum 1a to linear peptides of protein X2 [1]: 0.8
Binding of serum 1a to looped/cyclic peptides of protein X2 of SARS-CoV Urbani [1]: 0.4
Binding of serum 1b to linear peptides of protein X2 [1]: 0.5
Binding of serum 1b to looped/cyclic peptides of protein X2 of SARS-CoV Urbani [1]: 0.3
Binding of serum 2 to linear peptides of protein X2 [1]: 0.6
Binding of serum 2 to looped/cyclic peptides of protein X2 of SARS-CoV Urbani [1]: 0.2
Binding of serum 6 to linear peptides of protein X2 [1]: 0.6
Binding of serum 6 to looped/cyclic peptides of protein X2 of SARS-CoV Urbani [1]: 0.3
Binding of serum 37 to linear peptides of protein X2 [1]: 0.7
Binding of serum 37 to looped/cyclic peptides of protein X2 of SARS-CoV Urbani [1]: 0.2
Binding of serum 62 to linear peptides of protein X2 [1]: 0.7
Binding of serum 62 to looped/cyclic peptides of protein X2 of SARS-CoV Urbani [1]: 0.4
Binding of serum London to linear peptides of protein X2 [1]: 0.5
Binding of serum London to looped/cyclic peptides of protein X2 of SARS-CoV Urbani [1]: 0.2
Binding of serum SARS-green to linear peptides of protein X2 [1]: 0.6
Binding of serum SARS-green to looped/cyclic peptides of protein X2 of SARS-CoV Urbani [1]: 0.2
Binding of serum SARS-yellow to linear peptides of protein X2 [1]: 0.8
Binding of serum SARS-yellow to looped/cyclic peptides of protein X2 of SARS-CoV Urbani [1]: 0.2
Binding of Control Serum Blood-Bank to Looped peptides [2]: 0.4
Binding of Control serum Blood-bank to linear peptides [2]: 0.7
Binding of Control serum LUMC to linear peptides [2]: 0.6
Binding of Control serum LUMC to looped peptides [2]: 0.4
Binding of a rabbit serum to linear peptides [3]: 0.5
Binding of a rabbit serum to looped peptides [3]: 0.3

ACRIIMRCWLCWKCK
Recognition of the peptide by sera of SARS-CoV infected individuals, and form (linear, looped/cyclic) in which it is recognized [1]: recognized in linear form
Binding of Control Serum Blood-Bank to Looped peptides [2]: 0.1
Binding of Control serum Blood-bank to linear peptides [2]: 1.0
Binding of Control serum LUMC to linear peptides [2]: 0.8
Binding of Control serum LUMC to looped peptides [2]: 0.3
Recognition of the peptide by the rabbit serum [3]: recognized

RRRLLACLCKHKKVS
Binding of serum 1a to looped/cyclic peptides of protein X2 of SARS-CoV Urbani [1]: 0.2
Binding of serum 1b to looped/cyclic peptides of protein X2 of SARS-CoV Urbani [1]: 0.1
Binding of serum 2 to looped/cyclic peptides of protein X2 of SARS-CoV Urbani [1]: 0.0
Binding of serum 6 to looped/cyclic peptides of protein X2 of SARS-CoV Urbani [1]: 0.1
Binding of serum 37 to looped/cyclic peptides of protein X2 of SARS-CoV Urbani [1]: 0.2
Binding of serum 62 to looped/cyclic peptides of protein X2 of SARS-CoV Urbani [1]: 0.3
Binding of serum London to looped/cyclic peptides of protein X2 of SARS-CoV Urbani [1]: 0.1
Binding of serum SARS-green to looped/cyclic peptides of protein X2 of SARS-CoV Urbani [1]: 0.1
Binding of serum SARS-yellow to looped/cyclic peptides of protein X2 of SARS-CoV Urbani [1]: 0.1
Recognition of the peptide by sera of SARS-CoV infected individuals, and form (linear, looped/cyclic) in which it is recognized [1]: recognized in linear form
Binding of Control Serum Blood-Bank to Looped peptides [2]: 0.3
Binding of Control serum Blood-bank to linear peptides [2]: 0.7
Binding of Control serum LUMC to linear peptides [2]: 0.6
Binding of Control serum LUMC to looped peptides [2]: 0.2
Binding of a rabbit serum to linear peptides [3]: 0.5
Binding of a rabbit serum to looped peptides [3]: 0.2

TSLSLHKLLQTLVLK
Binding of serum 1a to linear peptides of protein X2 [1]: 0.7
Binding of serum 1a to looped/cyclic peptides of protein X2 of SARS-CoV Urbani [1]: 0.5
Binding of serum 1b to linear peptides of protein X2 [1]: 0.6
Binding of serum 1b to looped/cyclic peptides of protein X2 of SARS-CoV Urbani [1]: 0.4
Binding of serum 2 to linear peptides of protein X2 [1]: 0.5
Binding of serum 2 to looped/cyclic peptides of protein X2 of SARS-CoV Urbani [1]: 0.3
Binding of serum 6 to linear peptides of protein X2 [1]: 1.0
Binding of serum 6 to looped/cyclic peptides of protein X2 of SARS-CoV Urbani [1]: 0.3
Binding of serum 37 to linear peptides of protein X2 [1]: 0.6
Binding of serum 37 to looped/cyclic peptides of protein X2 of SARS-CoV Urbani [1]: 0.4
Binding of serum 62 to linear peptides of protein X2 [1]: 0.7
Binding of serum 62 to looped/cyclic peptides of protein X2 of SARS-CoV Urbani [1]: 0.6
Binding of serum London to linear peptides of protein X2 [1]: 0.6
Binding of serum London to looped/cyclic peptides of protein X2 of SARS-CoV Urbani [1]: 0.2
Binding of serum SARS-green to linear peptides of protein X2 [1]: 0.7
Binding of serum SARS-green to looped/cyclic peptides of protein X2 of SARS-CoV Urbani [1]: 0.4
Binding of serum SARS-yellow to linear peptides of protein X2 [1]: 0.6
Binding of serum SARS-yellow to looped/cyclic peptides of protein X2 of SARS-CoV Urbani [1]: 0.5
Binding of Control Serum Blood-Bank to Looped peptides [2]: 0.6
Binding of Control serum Blood-bank to linear peptides [2]: 0.9
Binding of Control serum LUMC to linear peptides [2]: 0.6
Binding of Control serum LUMC to looped peptides [2]: 0.6
Binding of a rabbit serum to linear peptides [3]: 0.2
Binding of a rabbit serum to looped peptides [3]: 0.5

AVYRINWVTGGIAIA
Binding of serum 1a to linear peptides of protein M of SARS-CoV Urbani [1]: 0.7
Binding of serum 1a to looped/cyclic peptides of protein M of SARS-CoV Urbani [1]: 0.8
Binding of serum 1b to linear peptides of protein M of SARS-CoV Urbani [1]: 0.6
Binding of serum 1b to looped/cyclic peptides of protein M of SARS-CoV Urbani [1]: 0.4
Binding of serum 2 to linear peptides of protein M of SARS-CoV Urbani [1]: 0.6
Binding of serum 2 to looped/cyclic peptides of protein M of SARS-CoV Urbani [1]: 0.6
Binding of serum 6 to linear peptides of protein M of SARS-CoV Urbani [1]: 0.2
Binding of serum 6 to looped/cyclic peptides of protein M of SARS-CoV Urbani [1]: 0.6
Binding of serum 37 to linear peptides of protein M of SARS-CoV Urbani [1]: 0.8
Binding of serum 37 to looped/cyclic peptides of protein M of SARS-CoV Urbani [1]: 0.7
Binding of serum 62 to linear peptides of protein M of SARS-CoV Urbani [1]: 0.8
Binding of serum 62 to looped/cyclic peptides of protein M of SARS-CoV Urbani [1]: 0.7
Binding of serum London to linear peptides of protein M of SARS-CoV Urbani [1]: 0.3
Binding of serum London to looped/cyclic peptides of protein M of SARS-CoV Urbani [1]: 0.2
Binding of serum SARS-green to linear peptides of protein M of SARS-CoV Urbani [1]: 0.3
Binding of serum SARS-green to looped/cyclic peptides of protein M of SARS-CoV Urbani [1]: 0.4
Binding of serum SARS-yellow to linear peptides of protein M of SARS-CoV Urbani [1]: 0.1
Binding of serum SARS-yellow to looped/cyclic peptides of protein M of SARS-CoV Urbani [1]: 0.7
Binding of Control Serum Blood-Bank to Looped peptides of the protein M of SARS-CoV Urbani [2]: 0.8
Binding of Control serum Blood-bank to linear peptides of the protein M of SARS-CoV Urbani [2]: 0.7
Binding of Control serum LUMC to linear peptides of the protein M of SARS-CoV Urbani [2]: 0.5
Binding of Control serum LUMC to looped peptides of the protein M of SARS-CoV Urbani [2]: 0.8
Rabbit serum linear peptides [3]: 0.4
Rabbit serum looped peptides [3]: 0.5
